Here are results for one compound from patent publication US5496703A, “Indirect immunoassay for dioxinlike compounds” (priority 1993, dated 1996).

For data set [1], the system named is total cell lysate protein tyrosylphosphorylation in X3 human lymphoblastoma cells. Nature of the data set: ELISA with antiphosphotyrosine monoclonal antibody, X3 cell lysate. The format is cell-based. The following applies: 16 hours. The protocol: (§1) The X3 human lymphoblastoma cells (Genetest, Wolburn, Mass.) were grown in 75 cm^2 T-flasks in RPMI 1640 medium (Gibco) containing 9% horse serum. Any cell or cell line expressing cytochrome P-450IA1 may be used. The cells were cultured at 37° C. in a 5% CO2 (balance air) environment. Cells were subcultured by centrifuging (1000 rpm, 3 minutes) and resuspended in fresh media to a volume of 50 mL (at a cell density of 1.0×10^6 cells/mL). The TCDD-corn oil solution was homogenized with serum to a final concentration of 0.10 μg/mL. The TCDD-serum was added at concentrations of 0, 0.02, 0.05, 0.1, 0.5 and 1.0 nM per flask and incubated for 16 hours. After the appropriate incubation time, the cells were harvested by centrifugation and washed three times (PBS, 40° C.). A final cell count was then determined.
ELISA were performed with 96-well microtiter plates precoated with antigen. X3 cell lysate was used as antigen and was prepared as a series of geometric dilutions ranging from 0.4 to 500 μg protein/mL PBS. One-tenth mL from each dilution was promptly pipetted into the wells of the microtiter plate in quadruplicate. […] Peroxidase activity was determined after incubation with substrate (0.03% H2 O2 and 1 mM 2,2'-azinodi(d-ethyl-benzthiazoline sulfonic acid-6) dissolved in 100 mM sodium citrate (pH 4.2) at 22° C. At the first visualization of color change A415 values were recorded.
(ELISA stands for enzyme-linked immunosorbent assay.)

A further data set deals with EGF receptor. The settings on record: cited from earlier work.
The test system of another data set is Ah receptor. The following applies: C57BL/6J mouse; cited from earlier work.
The test system of another data set is rodents. The following applies: guinea pig to hamster; cited from earlier work.
Data set [2] concerns total hepatic S-9 protein tyrosylphosphorylation. Nature of the data set: ELISA with antiphosphotyrosine monoclonal antibody, total hepatic S-9 protein tyrosylphosphorylation, mice dosed i.p. The format is in vivo, C57BL/6 mice. The protocol:
Female, C57BL/6 mice (or any cytochrome P-450IA1 inducible strain) were obtained from Harton Sprague Dawley (Indianapolis, Ind.). Experiments were performed using four to six week old, female mice weighing approximately 16 to 20 g. Mice were fed Prolab RMH 1000 rat, mouse and hamster food (Agway, Cortland, N.Y.) and received tap water ad libitum. All mice were housed three to five per cage and maintained on a photoperiod of 12 hours. Mice were killed 24 hours following an intraperitoneal injection of either corn oil alone or TCDD (Analabs) at 0.25, 0.5, 1, 2, 4, 10, 50 μg/kg, the volume of the injections ranged from 0.1 to 0.2 ml per mouse. Hepatic S-9 fractions were prepared by homogenizing the liver in 3 times the volume of 0.15M KCl. Following a 9000×g centrifugation for 20 minutes, the supernatant (S-9) fraction was carefully removed and quickly frozen for storage at -80° C.
ELISA were performed with 96-well microtiter plates precoated with antigen. S-9 was used as antigen and was prepared as a series of geometric dilutions ranging from 0.4 to 500 μg protein/mL PBS. One-tenth mL from each dilution was promptly pipetted into the wells of a the microtiter plate in quadruplicate. Plates were incubated overnight at 4° C. After washing with 0.05% Tween 20 (polyoxyethylenesorbitan monolaurate) in phosphate buffered saline (PBS), individual wells were saturated with 0.2 mL bovine serum albumin (20 mg/mL in PBS) for 2 hours at 37° C. Wells were then incubated with antiphosphotyrosine monoclonal antibody (1.5 μg/mL ascites fluid) in 1 mg/mL bovine serum albumin and 0.05% Tween 20 in PBS, and bound for 1 to 1.5 hours at 22° C. Incubation with horseradish peroxidase-linked antimouse IgG (Sigma, St. Louis; 0.5×10^3 mg IgG/mL PBS) and subsequent washing was performed as with the original monoclonal antibody. Peroxidase activity was determined after incubation with substrate (0.03% H2 O2 and 1 mM 2,2'-azinodi(d-ethyl-benzthiazoline sulfonic acid-6) dissolved in 100 mM sodium citrate (pH 4.2) at 22° C. At the first visualization of color change A415 values were recorded.

The next data set deals with protein kinase C. The settings on record: cited from earlier work.
Data set [3] relates to cytochrome P-450IA1 aryl hydrocarbon hydroxylase. The settings on record: 3 days post-injection (Poland et al. 1974); cited from earlier work.
The subject of the next data set is cytochrome P-450IA1. Kind of data set: Ethoxyresorufin O-deethylase assay (EROD), X3 cells. The format is cell-based, human. The following applies: 16 hours. As for the experimental part:
as §1, with “After the appropriate incubation time, the cells were harvested by centrifugation and washed three times (PBS, 40° C.).” left out
Resorufin (hydroxyphenoxazone) and ethoxyresorufin were purchased from Molecular Probes (Junction City, Oreg.). EROD was measured by following the increase in fluorescence due to the formation of resorufin by dealkylation of its ethoxy derivative. […] A baseline of fluorescence was recorded at an excitation wavelength of 530 nm and an emission wavelength of 585 nm. The reaction was started with the addition of NADPH and the dealkylation of the derivative to resorufin was followed by a progressive increase in fluorescence as resorufin was generated. Recordings were standardized by measuring the fluorescence of freshly generated resorufin from resorufin acetate (Sigma, St. Louis, Mo.) prior to each assay. […]

pEC50: −log10 of the molar value. “And” between values parts separate entries of the source, which are not always exact repeats. Identical values can stand only once.

Regarding `Clc1cc2c(cc1Cl)Oc1cc(Cl)c(Cl)cc1O2` [TCDD, 2,3,7,8-tetrachlorodibenzo-p-dioxin], in data set [1], the “concentration of maximal total protein tyrosylphosphorylation” value is 1 nM. For the same compound, the results for the pEC50 (in data set [1] (Homo sapiens); in the data set with cytochrome P-450IA1 (probit model)) were 9.89 and 9.52, respectively. The “plasma membrane EGF receptor levels” value in the data set with EGF receptor is “up-regulates plasma membrane EGF receptor levels”. The “hepatic level of Ah receptor capable of binding TCDD” value in the data set on Ah receptor is reported as 40-120 fmol/mg of protein. Besides, the “range of LD50 among rodents” value in the data set with rodents is recorded as at least 2500 fold. In data set [2] (ELISA, i.p., 24 hours after dosing, female C57BL/6 mice), the “dose of maximal total protein tyrosylphosphorylation” value is 2 μg TCDD/kg. Besides, the ED50 in data set [2] (Mus musculus, ip, ELISA, i.p., 24 hours after dosing, female C57BL/6 mice, read-out: median effective dose (ED50), total hepatic S-9 pTP) turned out to be 0.5 µg/kg. In data set [2] (ratio to EROD ED50 (A3), C57BL/6 mice), the “separation of ED50s for total protein or 44 kDalton pTP and EROD” value turned out to be 10 factor. The “protein kinase C activity” value in the data set on protein kinase C is given as “increases the activity of protein kinase C”. Further, the “published ED50, induction of aryl hydrocarbon hydroxylase specific activity” value in data set [3] was “approximately 3 μg/kg”. The “concentration of maximal EROD activity” value in the data set on cytochrome P-450IA1 was 2 nM and 1 nM.

As usually defined, the pEC50 is the negative decadic logarithm of the EC50, by convention in mol/L. A word on the ED50: it is the dose at which the effect has come halfway, by size or by number of responders.
